Measurements from US10399978B2, “Imidazopyridine thioglycolic acid derivatives as potent inhibitors of human urate transporter 1” (SHANDONG UNIVERSITY, priority 2016, dated 2019).

Tests used:
[1] = test system: mice with acute hyperuricemia; assay: In vivo activity of reducing serum uric acid (acute hyperuricemia induced with xanthine and potassium oxonate); parameters: species or system Kunming mice; conditions: for BUA (blood uric acid concentration): hyperuricemic Kunming mice; for anti-gout activity, compared with positive control benzbromarone: batch 1, conclusion from Table 2
Experimental: All newly synthesized target compounds were primarily evaluated for their activities of reducing blood uric acid in vivo (mice). Benzbromarone and lesinurad were selected as positive control drugs.
Example 46. In Vivo Activity of Reducing Serum Uric Acid
• (1) Experimental animal: Kunming mice, provided by Experimental Animal Center of Shandong University • (2) Preparation of compounds: Compounds were dissolved in ethanol and CMC-Na. • (3) Modeling drugs: Xanthine and potassium oxonate • (4) Reference drugs: Benzbromarone and Lesinurad • (5) Test method: The model group consisted of mice with acute hyperuricemia induced with 0.2 mL xanthine intragastric injection and 0.2 mL potassium oxonate subcutaneous injection, and not treated with test compound.

[2] = batch 2, Model 576.5 ± 120.5, Blank 262 ± 43.6, Blank (CMC-Na) 286 ± 90.9
[3] = batch 1, Model 1462.6 ± 194.3, Blank 377.2 ± 27.6

Structure (SMILES) | BUA (blood uric acid concentration) [1, 3] | also measured
CCOC(=O)C(C)(C)Sc1nc2ncccc2n1-c1ccc(C2CC2)c2ccccc12 [Compound T4] | – | BUA (blood uric acid concentration) [1, 2]: 306 ± 46.8 µM
Cc1cc(C)c(-n2c(SCC(=O)O)nc3cccnc32)c(C)c1 [Compound X5] | 1310.2 ± 155.8 µM | –
O=C(O)CSc1nc2cccnc2n1-c1ccc(C2CC2)c2ccccc12 [Compound Q5] | 824 ± 109.9 µM | –
Cc1cc(C)c(-n2c(SCCCC(=O)O)nc3cccnc32)c(C)c1 [Compound X6] | 655.2 ± 210.8 µM | anti-gout activity, compared with positive control benzbromarone [1]: significant anti-gout activity
CC(C)(Sc1nc2cccnc2n1-c1ccc(C2CC2)c2ccccc12)C(=O)O [Compound Q8] | 1448 ± 216.7 µM | –
CCOC(=O)C(C)Sc1nc2cccnc2n1-c1ccc(C2CC2)c2ccccc12 (centres unmarked) [Compound Q3] | 672 ± 76.2 µM | anti-gout activity, compared with positive control benzbromarone [1]: significant anti-gout activity
CCOC(=O)CCCSc1nc2cccnc2n1-c1ccc(C2CC2)c2ccccc12 [Compound Q2] | 1422.6 ± 194.4 µM | –
CCOC(=O)C(C)Sc1nc2ncccc2n1-c1ccc(C2CC2)c2ccccc12 (centres unmarked) [Compound T3] | – | BUA (blood uric acid concentration) [1, 2]: 339 ± 29.8 µM
O=C(O)CSc1nc2cccnc2n1-c1cccc2ccccc12 [Compound M5] | 1307.5 ± 195.3 µM | melting point: 129 to 130 °C
CCOC(=O)CSc1nc2cccnc2n1-c1cccc2ccccc12 [Compound M1] | 1507.6 ± 229.2 µM | melting point: 116.5 to 117 °C
CCOC(=O)CSc1nc2ncccc2n1-c1ccc(C2CC2)c2ccccc12 [Compound T1] | – | BUA (blood uric acid concentration) [1, 2]: 353.5 ± 35.6 µM
O=C(O)CSc1nc2ncccc2n1-c1ccc(C2CC2)c2ccccc12 [Compound T5] | – | BUA (blood uric acid concentration) [1, 2]: 342 ± 44.1 µM
CCOC(=O)C(C)Sc1nc2cccnc2n1-c1cccc2ccccc12 (centres unmarked) [Compound M3] | 1321.5 ± 183.5 µM | –
CC(Sc1nc2cccnc2n1-c1cccc2ccccc12)C(=O)O (centres unmarked) [Compound M7] | 1307.2 ± 133.1 µM | –
CCc1oc2ccccc2c1C(=O)c1cc(Br)c(O)c(Br)c1 [Benzbromarone, reference compound] | 762.5 ± 30.3 µM | –
CCOC(=O)CSc1nc2cccnc2n1-c1ccc(C2CC2)c2ccccc12 [Compound Q1] | 1344.75 ± 287.5 µM | –
O=C(O)CCCSc1nc2cccnc2n1-c1cccc2ccccc12 [Compound M6] | 1342 ± 144.3 µM | –

Structure (SMILES) | BUA (blood uric acid concentration) [1, 3] | also measured
CC(C)(Sc1nc2cccnc2n1-c1cccc2ccccc12)C(=O)O [Compound M8] | 1229 ± 150.2 µM | –
O=C(O)CCCSc1nc2cccnc2n1-c1ccc(C2CC2)c2ccccc12 [Compound Q6] | 1490.7 ± 269.9 µM | –
CCOC(=O)C(C)Sc1nc2cccnc2n1-c1c(C)cc(C)cc1C (centres unmarked) [Compound X3] | 983.2 ± 122.6 µM | –
Cc1cc(C)c(-n2c(SC(C)(C)C(=O)O)nc3cccnc32)c(C)c1 [Compound X8] | 1288 ± 211.5 µM | –
CC(C)(Sc1nc2ncccc2n1-c1ccc(C2CC2)c2ccccc12)C(=O)O [Compound T8] | – | BUA (blood uric acid concentration) [1, 2]: 295.2 ± 54 µM
CC(Sc1nc2cccnc2n1-c1ccc(C2CC2)c2ccccc12)C(=O)O (centres unmarked) [Compound Q7] | 763.2 ± 248.7 µM | –
CCOC(=O)C(C)(C)Sc1nc2cccnc2n1-c1cccc2ccccc12 [Compound M4] | 1363 ± 184.7 µM | –
Cc1cc(C)c(-n2c(SC(C)C(=O)O)nc3cccnc32)c(C)c1 (centres unmarked) [Compound X7] | 727.2 ± 150.7 µM | anti-gout activity, compared with positive control benzbromarone [1]: significant anti-gout activity
CCOC(=O)CSc1nc2cccnc2n1-c1c(C)cc(C)cc1C [Compound X1] | 1255.2 ± 184 µM | –
CCOC(=O)C(C)(C)Sc1nc2cccnc2n1-c1ccc(C2CC2)c2ccccc12 [Compound Q4] | 1328.2 ± 163.8 µM | –
CCOC(=O)CCCSc1nc2cccnc2n1-c1cccc2ccccc12 [Compound M2] | 634.7 ± 97.7 µM | anti-gout activity, compared with positive control benzbromarone [1]: significant anti-gout activity
CCOC(=O)C(C)(C)Sc1nc2cccnc2n1-c1c(C)cc(C)cc1C [Compound X4] | 689.2 ± 53.4 µM | anti-gout activity, compared with positive control benzbromarone [1]: significant anti-gout activity
CC(Sc1nc2ncccc2n1-c1ccc(C2CC2)c2ccccc12)C(=O)O (centres unmarked) [Compound T7] | – | BUA (blood uric acid concentration) [1, 2]: 189.7 ± 67.8 µM
CCOC(=O)CCCSc1nc2ncccc2n1-c1ccc(C2CC2)c2ccccc12 [Compound T2] | – | BUA (blood uric acid concentration) [1, 2]: 334 ± 65.7 µM
O=C(O)CCCSc1nc2ncccc2n1-c1ccc(C2CC2)c2ccccc12 [Compound T6] | – | BUA (blood uric acid concentration) [1, 2]: 330 ± 29.1 µM
O=C(O)CSc1nnc(Br)n1-c1ccc(C2CC2)c2ccccc12 [RDEA594, Lesinurad, reference compound] | – | BUA (blood uric acid concentration) [1, 2]: 409.5 ± 124.3 µM
CCOC(=O)CCCSc1nc2cccnc2n1-c1c(C)cc(C)cc1C [Compound X2] | 1107.7 ± 195.1 µM | –
